# Laboratory results published in patent US8278482B2, “Antimicrobial N-chlorinated compositions” (priority 2008, dated 2012).
# Where two headings read alike, the source gives them in different places.
# Tests used:
# Assay type in all cases: cell-based
# [1] = system: Staphylococcus aureus (ATCC 29213); test: Antimicrobial activity (MBC), S. aureus ATCC 29213
# Procedure: (§1) To determine antimicrobial activity, Escherichia coli (ATCC 25922), Staphylococcus aureus (ATCC 29213), Pseudomonas aeruginosa (ATCC 27853), and Candida albicans (ATCC 10231) were used in primary screening. In addition, Escherichia coli (MCC 80392), Staphylococcus aureus (MCC 91731), Pseudomonas aeruginosa (MCC 4438), and Candida albicans (MCC 50319), provided by Alcon Laboratories, Fort Worth, Tex., were used. The microbial cultures were diluted in sterile saline pH 4 to prepare inocula. Test compounds were titrated by stepwise two-fold dilutions in sterile saline pH 4. A total of 1.0×10^5 to 1.0×10^6 Colony Forming Units (CFU)/mL microbe was added to each tube, mixed by gentle vortexing, and then incubated at room temperature for 1 h. Microbial plating on Petri dishes (Tryptic Soy agar or Saboraud's Dextrose agar) was performed immediately after the designated exposure after neutralization of the test article dilutions in Dey-Engley Broth. Plates were incubated at 37° C., and the numbers of microbes were counted by direct colony count to quantitate the surviving microbes as CFU/mL. Positive growth controls were made with sterile 0.9% saline. Compounds were dissolved in unbuffered isotonic saline (SAL) or phosphate buffered saline (PBS) at pH 4 or pH 7 (using HCl and/or NaOH as needed). All compounds were tested three times. The results are tabulated to show the comparison of antimicrobial effectiveness range of the compounds.
# (§2) Data shown are the Minimum Bactericidal Concentration (MBC) or Minimum Fungicidal Concentration (MFC) (≧99.9% kill) in μg/mL.
# [2] = system: Escherichia coli (MCC 80392); test: Antimicrobial activity (MBC), E. coli MCC 80392; settings: 1 h exposure at room temperature
# Procedure: as §1, §2
# [3] = system: mouse fibroblast cells (ATCC CCL-1, L929); test: Cytotoxicity, WST-8 colorimetric assay; settings: 60 min exposure
# Procedure: Cytotoxicity was assessed by a colorimetric assay system using the Dojindo™ cell counting kit containing 2-(2-methoxy-4-nitrophenyl)-3-(4-nitrophenyl)-5-(2,4-disulfophenyl)-2H-tetrazolium, monosodium salt (WST-8). In this assay, the WST-8 reagent was bioreduced by cellular dehydrogenases to a formazan product that is highly soluble in tissue culture medium.
# In a standard assay, mouse fibroblast cells (ATCC CCL-1, L929), were cultured in Minimum Essential Medium, α-medium supplemented with 10% heat inactivated fetal bovine serum, L-glutamine, penicillin and streptomycin. Cells were trypsinized and counted under the microscope and seeded at 1.5×10^4 total cells per 100 μL per well of a flat-bottom 96-well plate in order to achieve ˜80% confluence after overnight incubation at 37° C. On the day of the assay, the tissue culture medium was removed and replaced with 30 μL of fresh medium.
# Test articles were prepared as 2-fold serial dilutions and 170 μL of each dilution is added into each of 4-wells (total volume per well=200 μL). The test plate was then returned to the 37° C. incubator for 60 min. Immediately after the exposed time, test article from each well was replaced with 200 μL of fresh media. Plates were incubated at 37° C. for 18-20 hours. The following day growth medium was replaced with 100 μL/well of fresh medium containing 10 μL WST-8 reagent. Cells were incubated under growth conditions (5% CO2 at 37° C. humidified incubator), protected from light, until color development was achieved (usually 1-4 hours). Absorbance was read at 450 nm with reference wavelength at 750 nm using Molecular Device SpectraMax M5 plate reader. Untreated or vehicle only treated cells receiving WST-8 reagent served as positive cell proliferation controls.
# The absorbance A450/750 from each well of untreated cells and from each well within the dilution series was measured. […] Next, a non-linear regression (curve fit) analysis was performed on all the absorbance data measured from the dilution series, including the absorbance data obtained from wells of the untreated control cells. For each dilution within the dilution series, an average A450/750 was calculated from the four replicate wells.
# [4] = system: Escherichia coli (ATCC 25922); test: Antimicrobial activity (MBC), E. coli ATCC 25922
# Procedure: as §1, §2
# [5] = system: Candida albicans (ATCC 10231); test: Antimicrobial activity (MFC), C. albicans ATCC 10231
# Procedure: as §1, §2
# [6] = system: Staphylococcus aureus (MCC 91731); test: Antimicrobial activity (MBC), S. aureus MCC 91731; settings: 1 h exposure at room temperature
# Procedure: as §1, §2
# [7] = system: Pseudomonas aeruginosa (MCC 4438); test: Antimicrobial activity (MBC), P. aeruginosa MCC 4438; settings: 1 h exposure at room temperature
# Procedure: as §1, §2
# [8] = system: Candida albicans (MCC 50319); test: Antimicrobial activity (MFC), C. albicans MCC 50319; settings: 1 h exposure at room temperature
# Procedure: as §1, §2
# [9] = ATCC29213, S. aureus ATCC 29213, pH 4 (Sal), 1 h exposure at room temperature, read-out: Minimum Bactericidal Concentration (MBC) (≧99.9% kill)
# [10] = ATCC25922, E. coli ATCC 25922, pH 4 (Sal), 1 h exposure at room temperature, read-out: Minimum Bactericidal Concentration (MBC) (≧99.9% kill)
# [11] = ATCC10231, C. albicans ATCC 10231, pH 4 (Sal), 1 h exposure at room temperature, read-out: Minimum Fungicidal Concentration (MFC) (≧99.9% kill)
SMILES,"MBC [1, 9] [µg/mL]",Minimum Bactericidal Concentration (MBC) (≧99.9% kill) ([2]; pH 4 (Sal)) [µg/mL],Minimum Bactericidal Concentration (MBC) (≧99.9% kill) ([2]; pH 7 (PBS)) [µg/mL],CT50 (concentration that results in survival of 50% of the cells) ([3]; pH 4 (Sal)) [mM],"MBC [4, 10] [µg/mL]","MFC [5, 11] [µg/mL]",Minimum Bactericidal Concentration (MBC) (≧99.9% kill) ([6]; pH 4 (Sal)) [µg/mL],Minimum Bactericidal Concentration (MBC) (≧99.9% kill) ([6]; pH 7 (PBS)) [µg/mL],Minimum Bactericidal Concentration (MBC) (≧99.9% kill) ([7]; pH 4 (Sal)) [µg/mL],Minimum Bactericidal Concentration (MBC) (≧99.9% kill) ([7]; pH 7 (PBS)) [µg/mL],"MBC ([1]; ATCC29213, S. aureus ATCC 29213, pH 7 (PBS), 1 h exposure at room temperature, read-out: Minimum Bactericidal Concentration (MBC) (≧99.9% kill)) [µg/mL]",CT50 (concentration that results in survival of 50% of the cells) ([3]; pH 7 (PBS)) [mM],Minimum Fungicidal Concentration (MFC) (≧99.9% kill) ([8]; pH 4 (Sal)) [µg/mL],Minimum Fungicidal Concentration (MFC) (≧99.9% kill) ([8]; pH 7 (PBS)) [µg/mL],"MBC ([4]; ATCC25922, E. coli ATCC 25922, pH 7 (PBS), 1 h exposure at room temperature, read-out: Minimum Bactericidal Concentration (MBC) (≧99.9% kill)) [µg/mL]","MFC ([5]; ATCC10231, C. albicans ATCC 10231, pH 7 (PBS), 1 h exposure at room temperature, read-out: Minimum Fungicidal Concentration (MFC) (≧99.9% kill)) [µg/mL]","MBC ([1]; ATCC29213, 1 h, pH 4, read-out: Minimum Bactericidal Concentration (MBC) (≧99.9% kill)) [µg/mL]","MBC ([4]; ATCC25922, 1 h, pH 4, read-out: Minimum Bactericidal Concentration (MBC) (≧99.9% kill)) [µg/mL]","MFC ([5]; ATCC10231, 1 h, pH 4, read-out: Minimum Fungicidal Concentration (MFC) (≧99.9% kill)) [µg/mL]"
"CC[N+](C)(CC)CCC(C)(C)N(Cl)Cl.[Cl-] [Compound 21-114, 3-(Dichloroamino)-N,N-diethyl-N-3-dimethylbutan-1-ammonium chloride]",2,2,512,1.3,8,16,4,512,4,1024,–,–,–,–,–,–,–,–,–
"CC(C)(CC[N+](C)(C)C)N(Cl)Cl.[Cl-] [Compound 21-32, 3-(Dichloroamino)-N,N,N-3-tetramethylbutan-1-ammonium chloride]",2,8,256,1.7,2,64,1,256,–,512,512,1.8,32,>1024,128,> 4100,–,–,–
"CC(C)(C[N+](C)(C)C)N(Cl)Cl [Compound 21-30, 2-(Dichloroamino)-N,N,N-2-tetramethylpropan-1-ammonium chloride]",–,16,512,0.5,–,–,8,512,–,–,–,0.5,256,>2048,–,–,8,16,128
"CC(C)(CC[N+]1(C)CCCCC1)N(Cl)Cl.[Cl-] [Compound 21-80, 1-(3-(Dichloroamino)-3-methylbutyl)-1-methylpiperidinium chloride]",4,4,256,0.9,2,32,4,>256,4,>256,–,–,64,>512,–,–,–,–,–
